From patent US8143276B2, “4-thio substituted quinoline and naphthyridine compounds” (XTL Biopharmaceuticals Ltd., priority 2007, dated 2012)

Columns and labels:
[1] = CellTiter-Glo Cell Viability Assay; type: cell-based, human; details: human, Huh-Luc-Neo cells, read-out: Cytotoxicity*
Method: (§1) Day 0, Cell Seeding and Compound Treatment: Huh-Luc-Neo Cells are seeded at 25,000/well in an opaque-walled 96 plate with Growth Medium (DMEM phenol red free+PS+2 mM glutamine; 100 ul/well). The compounds to be tested for inhibition of cell viability are added to the experimental wells (10 μl/well at 10× assay concentration) and the cells are then incubated (5% CO2, 37° C.) for 48 h.
Day 2, Reagent Preparation and Assay: The CellTiter-Glo Buffer is thawed and equilibrated to room temperature prior to use. The lyophilized CellTiter-Glo Substrate is equilibrated to room temperature prior to use. 10 ml of CellTiter-Glo Buffer is transferred to 1 vial of CellTiter-Glo Substrate and mixed by gently with a Vortex. 100 μl of CellTiter-Glo Assay reagent (CellTiter-Glo Buffer+CellTiter-Glo Substrate Mixture) is added to each well. The well contents are mixed for 5 min. on an orbital shaker at room temperature to induce cell lysis and the luminescence is then measured using a luminometer.

HCV RNA = assay: HCV Replicon RNA Assay (Taqman); type: cell-based, Hepatitis C virus; details: Hepatitis C virus; Huh-Luc-Neo cells, compound re-added at 24 h, HCV RNA by quantitative PCR; read-out: Replicon Inhibition*, Taqman
Method: (§2) Expression of HCV IRES driven luciferase reporter activity and HCV RNA is measured to obtain indirect and direct measures of replication of HCV RNA respectively. Inhibitors of HCV replication and/or proliferation are determined by initially identifying molecules that inhibit expression of the HCV IRES driven luciferase reporter in this HCV Replicon Luciferase Assay. Cell viability assays and control cell based luciferase assays are then run on hits identified in the HCV Replicon Luciferase Assay to eliminate cytoxic compounds and non-specific compounds which act by inhibiting the luciferase enzyme.
as §1, with “μl/well).” for “ul/well).”, “tested” for “tested for inhibition of cell viability”, “C.).” for “C.) for 48 h.”
Day 1, Media Change and Compound Treatment: 24 hours after the initial compound treatment the cell culture media is aspirated from the wells and fresh Growth Medium is added (DMEM phenol red free+PS+2 mM glutamine; 100 μl/well). The compounds to be tested are then added to the appropriate experimental wells (10 μl/well at 10× assay concentration) and the cells are then incubated (5% CO2, 37° C.) for an additional 24 hrs.
Day 2, RNA Isolation and cDNA Synthesis: The cells are washed with 1× Phosphate Buffered Saline (PBS) once.
Day 3, Quantitative PCR Based Measurement of HCV RNA (Taqman Assay): Quantitative PCR analysis to measure HCV RNA expression from cDNA synthesized on Day 2 is performed using the ABI 9700 HT Sequence Detection System (Applied Biosystems) as previously described (Lohman et al, Science 285, 110-113, 1999). The data is analyzed and IC50s are determined using GraphPad Prism 4 software. Hits validated in the Replicon RNA Assay have IC50s<8.0 μM and show <30% inhibition of Cell Viability at a compound concentration of 50 μM (Cell Titer Glow Assay, cell viability assay conditions identical to HCV Replicon RNA Assay conditions).

HCV Replicon = HCV Replicon Luciferase Assay; type: cell-based, Hepatitis C virus; details: Hepatitis C virus; Huh-Luc-Neo cells, 48 h incubation, luciferase reporter; read-out: Replicon Inhibition*, Luciferase
Method: The identification of inhibitors of HCV replication and/or proliferation has been facilitated by the development of a cell-based system to study HCV replication. Inhibition of HCV replication may be performed using the HCV Replicon Assay developed in the laboratories of Bartenschlager (Lohman et al, Science 285, 110-113, 1999) and Rice (Blight et al, Science 290, 1972-1974, 2000). The assay is performed using the Huh-Luc-Neo cell line (Lohman et al, Science 285, 110-113, 1999). Huh-Luc-Neo cells are a human hepatoma cell line (Huh-7) stably expressing a bi-cistronic subgenomic replicon containing the HCV IRES in which the structural proteins of HCV have been deleted and replaced by a construct containing sequences coding for the firefly luciferase reporter gene, the neomycin selectable marker and the EMCV IRES to direct expression of a truncated HCV genome expressing the […] NS3, NS4A, NS4B, NS5A, and NS5B. HCV targets through which inhibitors could act to inhibit replication include the NS3 protease, the helicase/ATPase, NS5A, the NS5B-RNA dependent RNA polymerase, and the HCV IRES.
as §2
as §1, with “μl/well).” for “ul/well).”, “tested” for “tested for inhibition of cell viability”
Day 2, Reagent Preparation and Luciferase Assay: The Bright-Glo Luciferase Assay Buffer (Promega) is thawed and equilibrated to room temperature prior to use. The lyophilized Bright-Glo Luciferase Assay Substrate is equilibrated to room temperature prior to use. 10 ml of Bright-Glo Luciferase Assay Buffer is transferred to 1 vial of Bright-Glo Luciferase Assay Substrate bottle and mixed by gently with a Vortex. 100 μl of Bright-Glo Luciferase Assay reagent (Bright-Glo Luciferase Assay Buffer+Bright-Glo Luciferase Assay Substrate Mixture) is added to each well. The well contents are mixed for 5 min. on an orbital shaker at room temperature to induce cell lysis and the luminescence is then measured using a luminometer. The data is analyzed and IC50s are determined using GraphPad Prism 4 software. Hits validated in the Replicon Luciferase assay have IC50s<8.0 μM and show <30% inhibition of Cell Viability at a compound concentration of 100 μM (Cell Titer Glow Assay, cell viability assay conditions identical to HCV Replicon Luciferase Assay conditions).

Row | Structure (SMILES) | IC50 at 48 h [1] [µM] | IC50 (HCV RNA) [µM] | IC50 (HCV Replicon) [µM]
1 | Cc1ccc(Sc2cc(=O)n(C)c3cc(C)c(C)cc23)cc1 [compound 034] | > 100 | < 1 | < 1
2 | Cc1ccc(Sc2cc(=O)n(C)c3ccc(C)cc23)cc1 [compound 032] | 10 to 100 | < 1 | < 1
3 | Cn1c(=O)cc(Sc2ccc(Cl)cc2)c2cc(F)ccc21 [compound 015] | > 100 | 1 to 10 | 1 to 10
4 | Cn1c(=O)cc(Sc2ccc(I)cc2)c2ccccc21 [compound 014] | > 100 | < 1 | 1 to 10
5 | CC(=O)Nc1ccc(Sc2cc(=O)n(C)c3ccccc23)cc1 [compound 017] | > 100 | 1 to 10 | 1 to 10
6 | Cc1ccc2c(c1)c(Sc1ccc(Br)cc1)cc(=O)n2C [compound 031] | 10 to 100 | < 1 | < 1
7 | Cn1c(=O)cc(Sc2ccc(N)cc2)c2ccc(Cl)cc21 [compound 027] | 10 to 100 | < 1 | < 1
8 | Cn1c(=O)cc(Sc2ccc(NC(=O)[C@@H](NC(=O)OC(C)(C)C)C3CCCCC3)cc2)c2ccccc21 [compound 024] | > 100 | 1 to 10 | < 1
9 | Cn1c(=O)cc(Sc2ccc(N)cc2)c2cccnc21 [compound 019] | > 100 | 1 to 10 | < 1
10 | CCn1c(=O)cc(Sc2ccc(Br)cc2)c2ccccc21 [compound 010] | > 100 | < 1 | 1 to 10
11 | Cn1c(=O)cc(Sc2ccc(F)cc2)c2cc(F)ccc21 [compound 018] | > 100 | 1 to 10 | 1 to 10
12 | Cc1cc2c(Sc3ccc(F)cc3)cc(=O)n(C)c2cc1C [compound 037] | > 100 | < 1 | < 1
13 | Cc1ccc(Sc2cc(=O)n(C)c3ncccc23)cc1 [compound 020] | > 100 | 1 to 10 | < 1
14 | CCc1ccc2c(c1)c(Sc1ccc(N)cc1)cc(=O)n2C [compound 038] | > 100 | < 1 | < 1
15 | Cn1c(=O)cc(Sc2ccc(C(C)(C)C)cc2)c2ccccc21 [compound 013] | > 100 | < 1 | 1 to 10
16 | COCCOCC(=O)Nc1ccc(Sc2cc(=O)n(C)c3ccccc23)cc1 [compound 021] | > 100 | 1 to 10 | < 1
17 | Cn1c(=O)cc(Sc2ccc(Br)cc2)c2ccccc21 [compound 001] | > 100 | < 1 | 1 to 10
18 | Cn1c(=O)cc(Sc2ccc(NC(=O)[C@H](Cc3ccccc3)NC(=O)OC(C)(C)C)cc2)c2ccccc21 [compound 022] | > 100 | 1 to 10 | 1 to 10
19 | Cc1ccc2c(c1)c(Sc1ccc(F)cc1)cc(=O)n2C [compound 026] | 10 to 100 | < 1 | < 1
20 | COc1ccc2c(c1)c(Sc1ccc(N)cc1)cc(=O)n2C [compound 030] | 10 to 100 | < 1 | < 1
21 | Cn1c(=O)cc(Sc2cc(Cl)ccc2Cl)c2ccccc21 [compound 006] | > 100 | 1 to 10 | 10 to 100
22 | Cn1c(=O)cc(Sc2ccc(F)cc2)c2ccccc21 [compound 003] | > 100 | 1 to 10 | 1 to 10
23 | Cc1ccc(NC(=S)Nc2ccc(Sc3cc(=O)n(C)c4ccc(C)cc34)cc2)cc1 [compound 036] | > 100 | 1 to 10 | 1 to 10
24 | Cc1ccc(Sc2cc(=O)n(C)c3ccc(F)cc23)cc1 [compound 016] | > 100 | 1 to 10 | 1 to 10
25 | Cn1c(=O)cc(Sc2c(Cl)cccc2Cl)c2ccccc21 [compound 004] | > 100 | < 1 | 1 to 10
